According to BindingDB's records for patent US20230365627 (Bristol Myers Squibb, 2023):
pIC50: −log10 of the molar value. *1 amine or outer side, *2 acyl side, *3 side chain or, on linkers, in order; H or OH if unused. Where a SMILES comes first, the peptide text is derived from it. Bridges are numbered along the chain shown (N, C = ends). [ ]: non-standard residue; d: D form. X14 = O=C([C@H](CN1Cc2cccc(c2)B2OCC(O)[C@@H](O2)[C@@H](O)[C@H](O)[C@H](O)C1)N[*:1])[*:2]; X13 = O=C([C@H](CCNC[C@@H](O)[C@@H](O)[C@H](O)[C@H](O)C(O)CO)N[*:1])[*:2]; Trp(1-CH2COOH) = N[C@@H](Cc1cn(CC(=O)O)c2ccccc12)C(=O)O; Hyp = O=C(O)[C@@H]1C[C@@H](O)CN1; NMeNle = CCCC[C@H](NC)C(=O)O; NMeA = CN[C@@H](C)C(=O)O

Biological target: Programmed cell death 1 ligand/protein 1 (Homo sapiens, UniProt Q9NZQ7)
Sequence (Q9NZQ7 whole entry): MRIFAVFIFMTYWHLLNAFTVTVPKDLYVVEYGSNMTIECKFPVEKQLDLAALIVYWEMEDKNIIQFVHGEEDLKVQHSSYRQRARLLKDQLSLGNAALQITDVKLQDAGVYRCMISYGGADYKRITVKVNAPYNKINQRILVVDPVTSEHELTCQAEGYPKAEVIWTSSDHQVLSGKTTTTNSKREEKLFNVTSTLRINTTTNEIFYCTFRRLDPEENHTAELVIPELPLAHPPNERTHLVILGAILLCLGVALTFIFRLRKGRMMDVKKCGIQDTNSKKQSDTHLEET
Sequence (Q15116 whole entry, further chain): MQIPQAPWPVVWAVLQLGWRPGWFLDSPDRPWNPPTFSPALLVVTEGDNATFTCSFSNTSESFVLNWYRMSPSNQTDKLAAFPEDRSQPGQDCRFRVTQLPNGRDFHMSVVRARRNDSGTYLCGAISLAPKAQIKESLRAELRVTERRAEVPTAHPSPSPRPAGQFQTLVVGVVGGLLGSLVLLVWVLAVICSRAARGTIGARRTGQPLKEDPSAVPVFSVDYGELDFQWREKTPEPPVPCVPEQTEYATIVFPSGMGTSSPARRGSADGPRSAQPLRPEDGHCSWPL
Assay: Binding of PD-1 to PD-L1 Using Homogenous Time-Resolved Fluorescence (HTRF) Binding Assay
Protocol: Homogenous Time-Resolved Fluorescence (HTRF) Binding Assay. The interaction of PD-1 and PD-L1 can be assessed using soluble, purified preparations of the extracellular domains of the two proteins. The PD-1 and PD-L1 protein extracellular domains were expressed as fusion proteins with detection tags, for PD-1, the tag was the Fc portion of Immunoglobulin (PD-1-Ig) and for PD-L1 it was the 6 histidine motif (PD-L1-His). All binding studies were performed in an HTRF assay buffer consisting of dPBS supplemented with 0.1% […] bovine serum albumin and 0.05% (v/v) Tween-20. For the h/PD-L1-His binding assay, inhibitors were pre-incubated with PD-L1-His (10 nM final) for 15 m in 4 μl of assay buffer, followed by addition of PD-1-Ig (20 nM final) in 1 μl of assay buffer and further incubation for 15 m. HTRF detection was achieved using europium cryptate-labeled anti-Ig (1 nM final) and allophycocyanin (APC) labeled anti-His (20 nM final). Antibodies were diluted in HTRF detection buffer and 5 μl was dispensed on top of the binding reaction. The reaction mixture was allowed to equilibrate for 30 minutes and the resulting signal (665 nm/620 nm ratio) was obtained using an EnVision fluorometer. Additional binding assays were established between the human proteins PD-1-Ig/PD-L2-His (20 & 5 nM, respectively) and CD80-His/PD-L1-Ig (100 & 10 nM, respectively).

SMILES	pIC50
CCCC[C@H]1C(=O)N(C)[C@@H](CCCC)C(=O)N[C@@H](CC(C)C)C(=O)N[C@H](C(=O)NCC(N)=O)CSCC(=O)N[C@@H](Cc2ccc(O)cc2)C(=O)N(C)[C@@H](C)C(=O)N[C@@H](CC(N)=O)C(=O)N2CCC[C@H]2C(=O)N[C@H]2CNC[C@@H](O)[C@@H](O)[C@H](O)[C@@H]3OB(OCC3O)c3ccccc3CNCC[C@H](NC(=O)[C@H](Cc3c[nH]c4ccccc34)NC(=O)[C@@H]3C[C@@H](O)CN3C(=O)[C@H](CC(C)C)NC2=O)C(=O)N[C@@H](Cc2cn(CC(=O)O)c3ccccc23)C(=O)N1C (some centres undefined) [US20230365627, Compound 1035]	8.40
CCCC[C@H]1C(=O)N(C)[C@@H](CCCC)C(=O)N[C@@H](CC(C)C)C(=O)N[C@H](C(=O)NCC(N)=O)CSCC(=O)N[C@@H](Cc2ccc(O)cc2)C(=O)N(C)[C@@H](C)C(=O)N[C@@H](CC(N)=O)C(=O)N2CCC[C@H]2C(=O)N[C@H]2CNC[C@@H](O)[C@@H](O)[C@H](O)[C@@H]3OB(OCC3O)c3cccc(c3)CNCC[C@H](NC(=O)[C@H](Cc3c[nH]c4ccccc34)NC(=O)[C@@H]3C[C@@H](O)CN3C(=O)[C@H](CC(C)C)NC2=O)C(=O)N[C@@H](Cc2cn(CC(=O)O)c3ccccc23)C(=O)N1C (some centres undefined) [US20230365627, Compound 1036]	8.02
CCCC[C@H]1C(=O)N(C)[C@@H](CCCC)C(=O)N[C@@H](CC(C)C)C(=O)N[C@H](C(=O)NCC(N)=O)CSCC(=O)N[C@@H](Cc2ccc(O)cc2)C(=O)N(C)[C@@H](C)C(=O)N[C@@H](CC(N)=O)C(=O)N2CCC[C@H]2C(=O)N[C@H]2CNC[C@@H](O)[C@@H](O)[C@H](O)[C@@H]3OB(OCC3O)c3ccc(cc3)CNCC[C@H](NC(=O)[C@H](Cc3c[nH]c4ccccc34)NC(=O)[C@@H]3C[C@@H](O)CN3C(=O)[C@H](CC(C)C)NC2=O)C(=O)N[C@@H](Cc2cn(CC(=O)O)c3ccccc23)C(=O)N1C (some centres undefined) [US20230365627, Compound 1037]	8.02
CCCC[C@H]1C(=O)N(C)[C@@H](CCCC)C(=O)N[C@@H](CC(C)C)C(=O)N[C@H](C(=O)NCC(N)=O)CSCC(=O)N[C@@H](Cc2ccc(O)cc2)C(=O)N(C)[C@@H](C)C(=O)N[C@@H](CC(N)=O)C(=O)N2CCC[C@H]2C(=O)N[C@@H](CN2Cc3cccc(c3)B3OCC(O)[C@@H](O3)[C@@H](O)[C@H](O)[C@H](O)C2)C(=O)N[C@@H](CC(C)C)C(=O)N2C[C@H](O)C[C@H]2C(=O)N[C@@H](Cc2c[nH]c3ccccc23)C(=O)N[C@@H](CCNC[C@@H](O)[C@@H](O)[C@H](O)[C@H](O)C(O)CO)C(=O)N[C@@H](Cc2cn(CC(=O)O)c3ccccc23)C(=O)N1C (some centres undefined) [US20230365627, Compound 1040] ({CH2CO}-Y[NMeA]NP[X14]L[Hyp]W[X13][Trp(1-CH2COOH)][NMeNle][NMeNle]LCG-NH2; thioether N-14)	8.25
